IC50 data for 13 compounds are collected here from patent publication US20210122730A1, “GLUCOCORTICOID RECEPTOR MODULATORS” (ORIC Pharmaceuticals, Inc., priority 2017, published 2021).

In assay [1] the target is T1, GR (Homo sapiens, UniProt P04150).
T1 construct: expressed in transfected cells; host or cells: CHO-K1
T1 sequence (P04150 1-777): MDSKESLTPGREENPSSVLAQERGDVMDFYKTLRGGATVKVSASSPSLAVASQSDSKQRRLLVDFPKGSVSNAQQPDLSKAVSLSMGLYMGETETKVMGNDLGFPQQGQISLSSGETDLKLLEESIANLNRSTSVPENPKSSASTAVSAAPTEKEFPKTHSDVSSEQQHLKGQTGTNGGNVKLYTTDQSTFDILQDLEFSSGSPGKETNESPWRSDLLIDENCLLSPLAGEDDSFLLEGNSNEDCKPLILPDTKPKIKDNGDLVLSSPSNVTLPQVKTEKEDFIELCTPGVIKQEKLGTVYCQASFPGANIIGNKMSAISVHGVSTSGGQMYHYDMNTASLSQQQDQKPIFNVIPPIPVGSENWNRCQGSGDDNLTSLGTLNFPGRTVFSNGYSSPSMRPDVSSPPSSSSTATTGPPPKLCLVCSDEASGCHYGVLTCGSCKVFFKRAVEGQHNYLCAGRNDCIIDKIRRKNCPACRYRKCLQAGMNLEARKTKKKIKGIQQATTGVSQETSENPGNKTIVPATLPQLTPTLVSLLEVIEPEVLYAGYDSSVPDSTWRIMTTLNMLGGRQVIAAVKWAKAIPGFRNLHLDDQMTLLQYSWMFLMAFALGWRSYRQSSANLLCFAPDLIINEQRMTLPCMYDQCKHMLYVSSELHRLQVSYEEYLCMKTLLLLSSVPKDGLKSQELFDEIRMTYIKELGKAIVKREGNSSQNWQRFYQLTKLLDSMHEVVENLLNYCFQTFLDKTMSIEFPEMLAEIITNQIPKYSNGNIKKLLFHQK
Put plainly: In Vitro GR Luciferase Reporter Assay (antagonist mode, CHO-K1-GR-MMTV-Luc reporter cells). It counts as cell-based. In outline:
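Antagonist mode: compounds (8 serial 1:5 dilutions) added to GR-MMTV-luciferase CHO-K1 reporter cells co-exposed to 10 nM dexamethasone final, in phenol red-free DMEM plus 10% CSS. After roughly 18-24 h at 37° C, OneGlo luminescence read and IC50 calculated.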

The target in assay [2] is T2, PR (Homo sapiens, UniProt P06401).
T2 construct: expressed in transfected cells; host or cells: CHO-K1
T2 sequence (P06401 1-933): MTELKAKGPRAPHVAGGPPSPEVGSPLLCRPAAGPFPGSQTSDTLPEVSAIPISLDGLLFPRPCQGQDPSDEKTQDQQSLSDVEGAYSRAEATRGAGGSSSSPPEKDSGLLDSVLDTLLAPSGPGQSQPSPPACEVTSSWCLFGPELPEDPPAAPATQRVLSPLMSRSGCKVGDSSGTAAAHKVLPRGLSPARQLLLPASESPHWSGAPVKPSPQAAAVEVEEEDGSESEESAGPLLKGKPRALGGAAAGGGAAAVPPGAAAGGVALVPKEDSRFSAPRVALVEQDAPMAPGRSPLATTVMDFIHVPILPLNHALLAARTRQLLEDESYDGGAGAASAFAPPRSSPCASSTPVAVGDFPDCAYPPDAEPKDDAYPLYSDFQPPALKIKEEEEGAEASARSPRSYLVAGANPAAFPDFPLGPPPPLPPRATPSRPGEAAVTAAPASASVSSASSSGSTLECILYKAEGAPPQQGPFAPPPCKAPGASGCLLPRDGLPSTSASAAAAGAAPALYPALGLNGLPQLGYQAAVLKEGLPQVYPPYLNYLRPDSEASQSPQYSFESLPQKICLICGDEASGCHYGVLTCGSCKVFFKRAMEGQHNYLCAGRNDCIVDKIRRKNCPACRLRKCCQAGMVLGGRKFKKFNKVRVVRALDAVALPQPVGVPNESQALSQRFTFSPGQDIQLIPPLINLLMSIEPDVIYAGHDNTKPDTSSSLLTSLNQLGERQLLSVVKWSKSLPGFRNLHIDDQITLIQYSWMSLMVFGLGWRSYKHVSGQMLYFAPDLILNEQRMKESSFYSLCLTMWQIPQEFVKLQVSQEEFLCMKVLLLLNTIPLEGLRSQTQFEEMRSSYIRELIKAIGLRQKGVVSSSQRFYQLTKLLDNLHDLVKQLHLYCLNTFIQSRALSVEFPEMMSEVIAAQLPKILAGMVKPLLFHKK
Put plainly: In Vitro PR Luciferase Reporter Assay (antagonist mode, CHO-K1-PR-MMTV-Luc reporter cells). It counts as cell-based. As to conditions: antagonist assay with 20 nM Progesterone, 18-24 hours, read-out: PR antagonism IC50. From the text:
Example C: In Vitro PR Luciferase Reporter Assay
Cell Line: CHO-KI-PR-MMTV-Luc reporter cells
Culture Media: DMEM (with phenol red)+1000FBS
Assay Media: DMEM (without phenol red)+1000CSS
Culture CHO-Kl-PR-MMTV-Luc reporter cells in 15 cm plates in Culture Media at conditions less than 90% confluence.
Prepared 200×DMSO 1:8 serial dilutions of control and test compounds in 96-well non-sterile V bottom plate in DMSO, 8 serial dilutions for each compound.
Prepared 5× Assay Media diluted compound serial dilutions in 96-well non-sterile V bottom plate: Add 97.5 μL/well of Assay Media into 96-well then add 2.5 μl of 200× concentration of compounds and mix well.
Added compounds: 5 μl of assay media diluted compounds were added to appropriate wells and followed a quick spin (1000 rpm, 10 sec) to bring media and cells to the bottom of plate. The plates were covered with SealMate film to avoid evaporation and placed in 37° C. incubator for approximately 18-24 hours.
Read plates: Equilibrated appropriate amount of Promega One-Glo luciferase reagent to room temperature. Removed the plates from incubator and added 25 μL of One-Glo luciferase reagent/well by multiple channel pipette and read the plates with Tecan F500 luminometer within 3 minutes.
The ability of exemplary compounds disclosed herein to inhibit PR activity was quantified and the respective IC50 value was determined. Table 4 provides the cellular IC50 values of exemplary compounds disclosed herein.

Where [3] appears, read: antagonist mode, 10 nM Dexamethasone.
[4] abbreviates: antagonist assay with 10 nM Dexamethasone, 18-24 hours.

SMILES strings stand for the structures. Where only a bound is given, the exact number is not on record here.

Consider `Cn1cc(S(=O)(=O)C[C@H]2CCC3=Cc4c(cnn4-c4ccc(F)cc4)C[C@]3(C(=O)c3cc(C(F)(F)F)ccn3)C2)cn1` (single isomer, unassigned) [Example 118], for which the results for the IC50 in assay [1] (setting [3]) and in assay [2] were not above 0.1 µM and more than 5 µM, respectively.

Turning to `CN([C@H]1CCC2=Cc3c(cnn3-c3ccc(F)cc3)C[C@]2(C(=O)c2cc(C(F)(F)F)ccn2)C1)S(=O)(=O)c1ccc(F)cc1` [Example 5, 4-Fluoro-N-((4aS,6S)-1-(4-fluorophenyl)-4a-(4-(trifluoromethyl)picolinoyl)-4,4a,5,6,7,8-hexahydro-1H-benzo[f]indazol-6-yl)-N-methylbenzenesulfonamide], the half-maximal inhibitory concentration (IC50) was not above 0.1 µM in assay [1] (setting [4]) and more than 5 µM in assay [2].

Take `Cn1cc(S(=O)(=O)N(C2CC2)[C@H]2CCC3=Cc4c(cnn4-c4ccc(F)cc4)C[C@]3(C(=O)c3cc(C(F)(F)F)ccn3)C2)cn1` [Example 88, N-cyclopropyl-N-((4aS,6S)-1-(4-fluorophenyl)-4a-(4-(trifluoromethyl)picolinoyl)-4,4a,5,6,7,8-hexahydro-1H-benzo[f]indazol-6-yl)-1-methyl-1H-pyrazole-4-sulfonamide]: the figures for the IC50 in assay [1] (setting [4]) and in assay [2] were not above 0.1 µM and more than 5 µM, respectively.

Regarding `CN([C@H]1CCC2=Cc3c(cnn3-c3ccc(F)cc3)C[C@]2(C(=O)c2cc(C(F)(F)F)ccn2)C1)S(=O)(=O)c1ccn(C)n1` [Example 98, N-((4aS,6S)-1-(4-fluorophenyl)-4a-(4-(trifluoromethyl)picolinoyl)-4,4a,5,6,7,8-hexahydro-1H-benzo[f]indazol-6-yl)-N,1-dimethyl-1H-pyrazole-3-sulfonamide], the IC50 in assay [1] (setting [4]) was not above 0.1 µM; in assay [2], 3.47 µM.

As to `Cn1cc(S(=O)(=O)N(CC2CC2)[C@H]2CCC3=Cc4c(cnn4-c4ccc(F)cc4)C[C@]3(C(=O)c3cc(C(F)(F)F)ccn3)C2)cn1` [Example 103, N-(cyclopropylmethyl)-N-((4aS,6S)-1-(4-fluorophenyl)-4a-(4-(trifluoromethyl)picolinoyl)-4,4a,5,6,7,8-hexahydro-1H-benzo[f]indazol-6-yl)-1-methyl-1H-pyrazole-4-sulfonamide], the results for the IC50 in assay [1] (setting [4]) and in assay [2] were not above 0.1 µM and more than 5 µM, respectively.

On to `Cn1ccc(S(=O)(=O)N(CC(F)(F)F)[C@H]2CCC3=Cc4c(cnn4-c4ccc(F)cc4)C[C@]3(C(=O)c3cc(C(F)(F)F)ccn3)C2)n1` [Example 111, N-((4aS,6S)-1-(4-Fluorophenyl)-4a-(4-(trifluoromethyl)picolinoyl)-4,4a,5,6,7,8-hexahydro-1H-benzo[f]indazol-6-yl)-1-methyl-N-(2,2,2-trifluoroethyl)-1H-pyrazole-3-sulfonamide], for which the IC50 in assay [1] (setting [3]) is not above 0.1 µM; in assay [2] it was more than 5 µM.

As to `Cn1ccc(S(=O)(=O)[C@H]2CCC3=Cc4c(cnn4-c4ccc(F)cc4)C[C@]3(C(=O)c3cc(C(F)(F)F)ccn3)C2)n1` [Example 113, ((4aS,6S)-1-(4-Fluorophenyl)-6-((1-methyl-1H-pyrazol-3-yl)sulfonyl)-1,4,5,6,7,8-hexahydro-4aH-benzo[f]indazol-4a-yl)(4-(trifluoromethyl)pyridin-2-yl)methanone], the IC50 in assay [1] (setting [3]) was not above 0.1 µM; in assay [2] it was more than 5 µM.

Consider `Cn1ccc(S(=O)(=O)N(C2CC2)[C@H]2CCC3=Cc4c(cnn4-c4ccc(F)cc4)C[C@]3(C(=O)c3cc(C(F)(F)F)ccn3)C2)n1` [Example 138, N-cyclopropyl-N-((4aS,6S)-1-(4-fluorophenyl)-4a-(4-(trifluoromethyl)picolinoyl)-4,4a,5,6,7,8-hexahydro-1H-benzo[f]indazol-6-yl)-1-methyl-1H-pyrazole-3-sulfonamide], for which the values for the half-inhibitory concentration (IC50) in assay [1] (setting [3]) and in assay [2] were not above 0.1 µM and more than 5 µM, respectively.

Turning to `O=C(c1ncc(C(F)(F)F)s1)[C@]12Cc3cnn(-c4ccc(F)cc4)c3C=C1CC[C@H](N(C1CC1)S(=O)(=O)c1ccc(F)cc1)C2` [Example 177, N-cyclopropyl-4-fluoro-N-((4aS,6S)-1-(4-fluorophenyl)-4a-(5-(trifluoromethyl)thiazole-2-carbonyl)-4,4a,5,6,7,8-hexahydro-1H-benzo[f]indazol-6-yl)benzenesulfonamide], the figures for the IC50 in assay [1] (setting [3]) and in assay [2] were not above 0.1 µM and more than 5 µM, respectively.

As for `Cn1ccc(S(=O)(=O)N(CC2CC2)[C@H]2CCC3=Cc4c(cnn4-c4ccc(F)cc4)C[C@]3(C(=O)c3ncc(C(F)(F)F)s3)C2)n1` [Example 179, N-(cyclopropylmethyl)-N-((4aS,6S)-1-(4-fluorophenyl)-4a-(5-(trifluoromethyl)thiazole-2-carbonyl)-4,4a,5,6,7,8-hexahydro-1H-benzo[f]indazol-6-yl)-1-methyl-1H-pyrazole-3-sulfonamide], the half-maximal inhibitory concentration (IC50) is not above 0.1 µM in assay [1] (setting [3]) and more than 5 µM in assay [2].

`CC(C)N([C@H]1CCC2=Cc3c(cnn3-c3ccc(F)cc3)C[C@]2(C(=O)c2cc(C(F)(F)F)ccn2)C1)S(=O)(=O)c1ccn(C)n1` [Example 186, N-((4aS,6S)-1-(4-fluorophenyl)-4a-(4-(trifluoromethyl)picolinoyl)-4,4a,5,6,7,8-hexahydro-1H-benzo[f]indazol-6-yl)-N-isopropyl-1-methyl-1H-pyrazole-3-sulfonamide]: the IC50 is not above 0.1 µM in assay [1] (setting [3]) and more than 5 µM in assay [2].

With `CC(C)N(C(=O)c1cnn(C)c1)[C@H]1CCC2=Cc3c(cnn3-c3ccc(F)cc3)C[C@]2(C(=O)c2ncc(C(F)(F)F)s2)C1` [Example 211, N-((4aS,6S)-1-(4-fluorophenyl)-4a-(5-(trifluoromethyl)thiazole-2-carbonyl)-4,4a,5,6,7,8-hexahydro-1H-benzo[f]indazol-6-yl)-N-isopropyl-1-methyl-1H-pyrazole-4-carboxamide], the half-maximal inhibitory concentration (IC50) in assay [1] (setting [3]) was not above 0.1 µM; in assay [2] it was more than 5 µM.

Take `Cn1ccc(S(=O)(=O)N(C2CC(F)(F)C2)[C@H]2CCC3=Cc4c(cnn4-c4ccc(F)cc4)C[C@]3(C(=O)c3cc(C(F)(F)F)ccn3)C2)n1` [Example 227, N-(3,3-difluorocyclobutyl)-N-((4aS,6S)-1-(4-fluorophenyl)-4a-(4-(trifluoromethyl)picolinoyl)-4,4a,5,6,7,8-hexahydro-1H-benzo[f]indazol-6-yl)-1-methyl-1H-pyrazole-3-sulfonamide]: the IC50 was not above 0.1 µM in assay [1] (setting [3]) and more than 5 µM in assay [2].
